In patent US11840686B2, “Modulation of prekallikrein (PKK) expression” (Ionis Pharmaceuticals, Inc., priority 2013, dated 2023):
Strand notation (5' to 3'): a small letter for the sugar, then the base; units joined by * are phosphorothioate-linked, units joined directly phosphodiester-linked; [ ] holds rarer units or linkages, { } end groups; capitals alone tell only the bases. e = 2'-O-(2-methoxyethyl) (MOE); k = constrained ethyl (cEt); [5mC] = 5-methylcytosine; d = 2'-deoxy (DNA)

Key:
human PKK mRNA [1] = assay: Antisense inhibition of human PKK mRNA in HepaRG cells, 1,000 nM, MOE/deoxy/cEt oligonucleotides (Example 3); assay type: cell-based
Procedure, shortened: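 HepaRG cells at 20,000 per well electroporated with 1,000 nM 16-mer MOE/cEt/deoxy gapmers (phosphorothioate, 5-methylcytosine). After about 24 h, PKK mRNA measured by qRT-PCR with primer probe set RTS3454, normalized to RIBOGREEN total RNA. Reported as percent inhibition versus untreated cells.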

human PKK mRNA [2] = assay: Dose-dependent antisense inhibition of human PKK in HepaRG cells, 0.11-3.00 uM (Example 6); assay type: cell-based; settings: for IC50: 0.11-3.00 μM; for percent inhibition of PKK mRNA, 0.11 μM / percent inhibition of PKK mRNA, 0.33 μM / percent inhibition of PKK mRNA, 1.00 μM / percent inhibition of PKK mRNA, 3.00 μM: electroporation, approx. 16 hours, relative to untreated control cells
Protocol: Cells were plated at a density of 20,000 cells per well and transfected using electroporation with 0.11 μM, 0.33 μM, 1.00 μM, and 3.00 μM concentrations of antisense oligonucleotide. After a treatment period of approximately 16 hours, RNA was isolated from the cells and PKK mRNA levels were measured by quantitative real-time PCR. Human PKK primer probe set RTS3454 was used to measure mRNA levels. PKK mRNA levels were adjusted according to total RNA content, as measured by RIBOGREEN®. The antisense oligonucleotides were tested in a series of experiments that had similar culture conditions.
The half maximal inhibitory concentration (IC50) of each oligonucleotide is also presented.

[3] = Table 20, HepaRG cells, electroporation with 1,000 nM antisense oligonucleotide, approximately 24 hours, PKK mRNA by RT-PCR (RTS3454), relative to untreated control cells
[4] = Table 22 experiment, HepaRG cells, electroporation with 1,000 nM antisense oligonucleotide, approx. 24 hours, PKK mRNA by RT-PCR (RTS3454), relative to untreated control cells
[5] = Table 30, human PKK mRNA, HepaRG cells, 1,000 nM antisense oligonucleotide
[6] = Table 28, HepaRG cells, 1,000 nM antisense oligonucleotide, human PKK mRNA
[7] = HepaRG cells, electroporation with 1,000 nM antisense oligonucleotide, approximately 24 hours, primer probe set RTS3454, relative to untreated control cells, experiment of Table 24
[8] = HepaRG cells, electroporation with 1,000 nM antisense oligonucleotide, approx. 24 hours, PKK mRNA by RT-PCR (RTS3454), relative to untreated control cells, Table 25 experiment
[9] = HepaRG cells, 1,000 nM antisense oligonucleotide, Table 29
[10] = Table 19, HepaRG cells, electroporation with 1,000 nM antisense oligonucleotide, approximately 24 hours, PKK mRNA by RT-PCR (RTS3454), relative to untreated control cells

Row | Substance | % inhibition (human PKK mRNA [1]; [3]) [%] | % inhibition (human PKK mRNA [1]; [4]) [%] | IC50 (human PKK mRNA [2]) [nM] | percent inhibition of PKK mRNA, 0.11 μM (human PKK mRNA [2]) [%] | percent inhibition of PKK mRNA, 0.33 μM (human PKK mRNA [2]) [%] | percent inhibition of PKK mRNA, 1.00 μM (human PKK mRNA [2]) [%] | % inhibition (human PKK mRNA [1]; [5]) [%] | percent inhibition of PKK mRNA, 3.00 μM (human PKK mRNA [2]) [%] | % inhibition (human PKK mRNA [1]; [6]) [%] | % inhibition (human PKK mRNA [1]; PKK mRNA, HepaRG cells, 1,000 nM antisense oligonucleotide, Table 31) [%] | % inhibition (human PKK mRNA [1]; [7]) [%] | % inhibition (human PKK mRNA [1]; [8]) [%] | % inhibition (human PKK mRNA [1]; [9]) [%] | % inhibition (human PKK mRNA [1]; [10]) [%]
1 | 547877 (antisense eA*eA*k[5mC]*dA*d[5mC]*dT*dG*d[5mC]*dT*dA*dA*d[5mC]*d[5mC]*kT*kT*eA) [compound 547877] | 81 | 93 | 200 | 29 | 66 | 83 |  |  |  |  |  |  |  | 
2 | 548410 (antisense eA*eG*kT*dA*dT*d[5mC]*dA*d[5mC]*dT*dG*dT*dA*d[5mC]*kT*kA*eG) [compound 548410] |  |  | 200 | 31 | 58 | 85 | 85 | 82 |  |  |  |  |  | 
3 | 548479 (eA*eG*kG*d[5mC]*d[5mC]*dA*dT*dT*dT*dG*dA*dT*d[5mC]*k[5mC]*kG*eA; antisense) [compound 548479] |  |  | 400 | 2 | 52 | 82 |  | 97 | 68 |  |  |  |  | 
4 | 548655 (antisense e[5mC]*e[5mC]*k[5mC]*dG*dA*dG*dG*dT*d[5mC]*dA*d[5mC]*dA*dT*kA*kA*eT) [compound 548655] |  |  | > 3000 | 0 | 0 | 8 |  | 33 |  | 56 |  |  |  | 
5 | 548047 (eG*eA*kT*dA*dT*d[5mC]*dA*dT*dG*dA*dT*dT*d[5mC]*k[5mC]*k[5mC]*eT; antisense) [compound 548047] |  |  |  | 50 | 62 | 76 |  | 95 |  |  | 83 |  |  | 
6 | 548069 (e[5mC]*e[5mC]*kA*dA*d[5mC]*dA*dG*dT*dT*dG*dG*dT*dA*kT*kA*eA; antisense) [compound 548069] |  |  | 1900 | 6 | 0 | 27 |  | 66 |  |  | 57 |  |  | 
7 | 548201 (eT*eG*kT*dT*d[5mC]*dT*dA*dA*dT*dG*dT*dG*dG*k[5mC]*kA*e[5mC]; antisense) [compound 548201] |  |  | 800 | 0 | 7 | 70 |  | 85 |  |  |  | 67 |  | 
8 | 548557 (antisense eG*eT*kT*dA*d[5mC]*dT*d[5mC]*dT*dG*dT*dG*dA*dT*k[5mC]*k[5mC]*eA) [compound 548557] |  |  | 400 | 5 | 47 | 82 |  | 95 |  |  |  |  | 81 | 
9 | 548043 (eA*eT*kT*dT*dG*dT*dG*dA*dG*dA*dA*dA*dG*kG*kT*eG; antisense) [compound 548043] |  |  | 300 | 14 | 60 | 90 |  | 92 |  |  | 76 |  |  | 
10 | 548409 (antisense eG*eT*kA*dT*d[5mC]*dA*d[5mC]*dT*dG*dT*dA*d[5mC]*dT*kA*kG*eT) [compound 548409] |  |  | 300 | 21 | 60 | 90 | 81 | 93 |  |  |  |  |  | 
11 | 547861 (antisense eA*e[5mC]*kT*d[5mC]*d[5mC]*dT*d[5mC]*dT*d[5mC]*dA*dT*dA*dT*k[5mC]*kA*eA) [compound 547861] | 0 | 57 | 500 | 7 | 40 | 75 |  | 84 |  |  |  |  |  | 
12 | 548125 (antisense e[5mC]*eT*kA*dG*dA*d[5mC]*dT*d[5mC]*dT*dG*dG*dA*d[5mC]*kT*kG*e[5mC]) [compound 548125] |  |  | 300 | 33 | 50 | 81 |  | 73 |  |  |  |  |  | 89
13 | 547862 (antisense eG*eA*k[5mC]*dT*d[5mC]*d[5mC]*dT*d[5mC]*dT*d[5mC]*dA*dT*dA*kT*k[5mC]*eA) [compound 547862] | 22 | 88 | 300 | 26 | 71 | 69 |  |  |  |  |  |  |  | 
14 | 548217 (e[5mC]*eT*kG*dT*dG*d[5mC]*dA*dT*dA*dG*dA*d[5mC]*d[5mC]*k[5mC]*k[5mC]*eA; antisense) [compound 548217] |  |  | 900 | 22 | 24 | 54 |  | 71 |  |  |  | 69 |  | 
15 | 548570 (eA*eT*kG*d[5mC]*d[5mC]*dT*dT*dG*dT*dG*d[5mC]*d[5mC]*dT*kA*kT*eT; antisense) [compound 548570] |  |  | 400 | 20 | 40 | 70 |  | 94 |  |  |  |  | 74 | 
16 | 548170 (eA*eG*kT*dT*dG*d[5mC]*dG*dA*d[5mC]*d[5mC]*dT*d[5mC]*dG*k[5mC]*kA*eT; antisense) [compound 548170] |  |  | 2000 | 0 | 8 | 26 |  | 65 |  |  |  | 68 |  | 
17 | 548583 (eG*eG*kG*dA*dA*dT*dT*dT*dA*dT*dG*d[5mC]*dT*kG*k[5mC]*e[5mC]; antisense) [compound 548583] |  |  | 200 | 43 | 46 | 93 |  | 88 |  |  |  |  | 79 | 
18 | 548109 (antisense eG*e[5mC]*kA*dT*d[5mC]*dT*dG*dA*dG*d[5mC]*dT*dT*dT*kT*k[5mC]*e[5mC]) [compound 548109] |  |  |  | 50 | 92 | 79 |  | 85 |  |  |  |  |  | 77
19 | 548004 (eA*eG*kT*dA*dA*d[5mC]*d[5mC]*dA*dG*dA*dG*d[5mC]*dT*k[5mC]*k[5mC]*e[5mC]; antisense) [compound 548004] |  |  | 300 | 24 | 47 | 80 |  | 92 |  |  | 80 |  |  | 
20 | 548180 (eT*e[5mC]*kA*dT*dG*dG*dA*dG*dA*dT*d[5mC]*dT*d[5mC]*kA*kG*eT; antisense) [compound 548180] |  |  | 400 | 11 | 59 | 71 |  | 88 |  |  |  | 79 |  | 
21 | 548486 (e[5mC]*eG*kT*dG*dG*dT*dT*dA*dG*d[5mC]*d[5mC]*dT*dG*kA*k[5mC]*eA; antisense) [compound 548486] |  |  | 400 | 20 | 48 | 77 |  | 92 | 68 |  |  |  |  | 
22 | 548521 (antisense e[5mC]*eA*kG*d[5mC]*dT*d[5mC]*d[5mC]*d[5mC]*dT*dT*dA*d[5mC]*dT*kA*kG*eG) [compound 548521] |  |  | > 3000 | 21 | 0 | 3 |  | 1 | 61 |  |  |  |  | 
